Measured values reported in patent EP4629837B1, “ANIMAL FEED COMPOSITION HAVING A COMBINATION OF FENUGREEK AND NEOHESPERIDIN DIHYDROCHALCONE (NHDC) TO IMPROVE PERFORMANCE OF ANIMALS OR STIMULATE THEIR SWEET TASTE RECEPTORS” (ADM International Sàrl, priority 2022, dated 2024).
Where a SMILES comes first, the peptide text is derived from it.

Tests used:
[1] = target: T1, pig sweet taste receptors (Sus scrofa, UniProt I1ZBR6+Q0EF93); assay: Activation of heterologously expressed pig sweet taste receptors in HEK293T-PEAK rapid Gα15 cells (Fluo-4 AM Ca2+ fluorescence, dose-response); format: cell-based; conditions: single compounds and 1:4 combination, heterologous system of Example 1
Protocol: For the production of pig sweet taste receptor constructs, full length coding sequences of pig taste receptors T1R2 and T1R3 of pigs were synthesized and ligated into modified expression vectors pcDNA3/TO and pcDNA5/FRT/PM for evaluation. Amino-terminal sst-tags were added to facilitate cell membrane targeting, cytomegalovirus (CMV) promoters were added to control gene expression, and carboxylterminal FLAG or HSV tags were added to enable immunological detection of receptor subunits 1,2. […]
Functional expression of sweet taste receptors. The pig sweet taste receptor function was analyzed by transfecting the HEK293T-PEAK rapid Gα15 cells with taste receptor constructs described herein. […]
The transfected cells were analyzed with each of the sweeteners/compounds individually using a wide range of concentrations. The ligand binding and subsequent activation of the taste receptor causes an influx of Ca^2+ ions into the cell, which can be measured as an increase in fluorescent signaling using a microplate reader as shown in Figure 2.
The dose-response curves are calculated by using mean fluorescence values of multiple wells receiving the same concentration of sweetener/compound, and subtracting fluorescence changes of corresponding cells transfected with empty vector (ΔF). Signals are normalized to background fluorescence (ΔF/F). […]

pig intestine = conditions: Daly et al.; cited from earlier work
[2] = target: T1, pig sweet taste receptors; conditions: Daly et al.; cited from earlier work

T1 sequence (I1ZBR6 entry or part of it): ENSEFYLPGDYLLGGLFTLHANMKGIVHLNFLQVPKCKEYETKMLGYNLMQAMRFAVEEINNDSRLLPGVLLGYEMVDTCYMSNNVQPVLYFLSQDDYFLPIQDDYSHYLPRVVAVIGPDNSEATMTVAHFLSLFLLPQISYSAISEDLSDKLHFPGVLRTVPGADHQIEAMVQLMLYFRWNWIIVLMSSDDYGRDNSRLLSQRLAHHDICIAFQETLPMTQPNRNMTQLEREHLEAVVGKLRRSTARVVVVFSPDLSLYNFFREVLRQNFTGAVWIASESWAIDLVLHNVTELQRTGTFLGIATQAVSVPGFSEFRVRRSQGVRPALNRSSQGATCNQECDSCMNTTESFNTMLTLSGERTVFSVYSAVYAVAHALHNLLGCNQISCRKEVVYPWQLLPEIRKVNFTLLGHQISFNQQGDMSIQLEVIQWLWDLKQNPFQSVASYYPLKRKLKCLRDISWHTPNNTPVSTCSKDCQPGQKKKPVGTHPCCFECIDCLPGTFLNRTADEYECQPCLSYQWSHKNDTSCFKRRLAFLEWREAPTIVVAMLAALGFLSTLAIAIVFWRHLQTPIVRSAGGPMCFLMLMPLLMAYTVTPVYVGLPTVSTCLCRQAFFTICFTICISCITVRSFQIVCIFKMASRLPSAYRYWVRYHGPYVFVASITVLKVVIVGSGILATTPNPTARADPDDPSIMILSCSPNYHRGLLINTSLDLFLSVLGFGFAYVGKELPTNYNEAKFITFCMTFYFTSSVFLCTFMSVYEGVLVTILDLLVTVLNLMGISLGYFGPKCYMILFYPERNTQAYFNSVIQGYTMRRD
T1 sequence (Q0EF93 entry or part of it): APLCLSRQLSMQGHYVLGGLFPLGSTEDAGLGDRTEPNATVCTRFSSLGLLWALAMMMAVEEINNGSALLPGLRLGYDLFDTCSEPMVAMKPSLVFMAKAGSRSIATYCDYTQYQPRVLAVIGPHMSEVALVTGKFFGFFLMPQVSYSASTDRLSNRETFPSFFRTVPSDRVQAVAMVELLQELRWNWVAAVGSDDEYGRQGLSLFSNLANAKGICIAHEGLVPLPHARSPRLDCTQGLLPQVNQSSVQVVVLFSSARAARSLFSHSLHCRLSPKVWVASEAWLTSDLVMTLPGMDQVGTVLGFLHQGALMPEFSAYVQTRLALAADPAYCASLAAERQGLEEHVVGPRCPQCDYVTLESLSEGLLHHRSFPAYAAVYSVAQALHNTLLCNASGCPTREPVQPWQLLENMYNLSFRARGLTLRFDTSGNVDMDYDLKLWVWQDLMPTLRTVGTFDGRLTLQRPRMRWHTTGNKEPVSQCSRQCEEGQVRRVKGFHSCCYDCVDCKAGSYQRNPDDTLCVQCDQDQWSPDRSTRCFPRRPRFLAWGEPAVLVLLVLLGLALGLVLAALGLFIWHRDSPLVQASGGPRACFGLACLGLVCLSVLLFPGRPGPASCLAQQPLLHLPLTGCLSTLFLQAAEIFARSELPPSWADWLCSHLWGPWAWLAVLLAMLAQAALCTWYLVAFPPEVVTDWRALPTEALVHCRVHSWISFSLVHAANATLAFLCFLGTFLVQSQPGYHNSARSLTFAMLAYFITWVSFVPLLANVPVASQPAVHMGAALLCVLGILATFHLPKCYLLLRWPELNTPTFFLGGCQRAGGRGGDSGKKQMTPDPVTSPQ

COc1ccc(CCC(=O)c2c(O)cc(O[C@@H]3O[C@H](CO)[C@@H](O)[C@H](O)[C@H]3O[C@@H]3O[C@@H](C)[C@H](O)[C@@H](O)[C@H]3O)cc2O)cc1O [NHDC # 020D066, 1-(4-((2-O-[6-Deoxy-α-L-mannopyranosyl]-β-D-glucopyranosyl)oxy)-2,6-dihydroxyphenyl)-3-[3-hydroxy-4-methoxyphenyl]-1-poranone]
In vitro EC50 (mg/ml) for pig sweet taste receptors [1]: 0.62 mg/mL

C=C1C[C@@]23CC[C@H]4[C@@](C)(CCC[C@@]4(C)C(=O)O[C@@H]4O[C@H](CO)[C@@H](O)[C@H](O)[C@H]4O)[C@@H]2CC[C@]1(O[C@@H]1O[C@H](CO)[C@@H](O)[C@H](O[C@@H]2O[C@H](CO)[C@@H](O)[C@H](O)[C@H]2O)[C@H]1O[C@@H]1O[C@H](CO)[C@@H](O)[C@H](O)[C@H]1O)C3 [Rebaudioside A]
In vitro EC50 (mg/ml) for pig sweet taste receptors [1]: 0.76 mg/mL

COC(=O)[C@H](Cc1ccccc1)NC(=O)[C@@H](N)CC(=O)O [aspartame] (H-Asp-Phe-OMe)
glucose uptake in the pig intestine (pig intestine): do not induce higher glucose uptake in the pig intestine | activation of pig sweet taste receptors in vitro [2]: do not activate pig sweet taste receptors in vitro
